From PMC12592502, “Unraveling the mechanisms behind the enhanced efficacy of β-lactam-based sideromycins” (Communications Biology, 2025)
≈ marks a conversion by molar mass, not a printed value. Where two headings read alike, the source gives them in different places.

How the values were obtained:
E. coli ΔacrAB = test: MIC, efflux pump mutant; type: cell-based, Escherichia coli; conditions: Escherichia coli
Experimental: (§1) Minimal inhibitory concentrations (MICs) were performed using a broth microdilution technique according to the Clinical and Laboratory Standards Institute (CLSI) guidelines. MICs were determined in MHBCA and in ID-MHBCA. To check the impact of β-lactamases, MICs in the presence of a β-lactamase inhibitor were also determined. The inhibitor was homogenized at 2X the final concentration and added to the bacterial inoculum just before distributing cells into the wells containing the drug dilutions. The final concentration of each inhibitor was 4 μg/mL for clavulanic acid (tested against K. pneumoniae) and 200 μg/mL for 3-aminophenylboronic acid (tested against P. aeruginosa and A. baumannii).

P. aeruginosa 1020 = test: MIC, parent of efflux pump mutants; type: cell-based, Pseudomonas aeruginosa; conditions: Pseudomonas aeruginosa
Experimental: as §1

[1] = tested on: P. aeruginosa 2302 MexAB, MexCD, MexEF upregulated; test: MIC, efflux pump overexpressing strain; type: cell-based, Pseudomonas aeruginosa; conditions: Pseudomonas aeruginosa
Experimental: as §1

A. baumannii ATCC 19606 = test: MIC, broth microdilution (CLSI); type: cell-based, Acinetobacter baumannii; conditions: for MIC in combination with PAβN: + 25 µg/mL PAβN
Experimental: (§2) All bacterial strains (see description and sources Table S1) were stored at −80 °C, and grown on tryptone soya agar (TSA) at 35 °C. The iron-deprived (ID)-MHBCA (cation-adjusted Muller-Hinton Broth, Becton Dickinson, Mississauga, ON, Canada) medium was prepared as reported by refs. [21],[50]. Briefly, MHBCA was treated with 10% Chelex® 50-100 mesh (Sigma) and stirred for 6 h at room temperature. The resin was removed by filtration. Divalent Ca^2+ (CaCl2), Mg^2+ (MgCl2), and Zn^2+(ZnSO4), were then added in the iron-depleted medium at 22, 12, and 1 μg/ml respectively. Finally, the pH was adjusted to 7.3, and the medium was sterilized with a 0.2-μm filter. Regular MHBCA (i.e., not treated with Chelex®) was used to compare the inhibitory activity of conjugates in iron-sufficient conditions. The resin used for Chelex treatment was always fresh and had never been regenerated, ensuring consistent iron removal.
as §1

E. coli lptD4213 = test: MIC, hyperpermeable mutant; type: cell-based, Escherichia coli; conditions: Escherichia coli
Experimental: as §2, §1

P. aeruginosa ATCC 27853 = test: MIC, broth microdilution (CLSI); type: cell-based, Pseudomonas aeruginosa; conditions: for MIC in combination with PAβN: + 25 µg/mL PAβN
Experimental: as §2, with “conditions.” for “conditions. The resin used for Chelex treatment was always fresh and had never been regenerated, ensuring consistent iron removal.”
as §1

[2] = tested on: P. aeruginosa 1624 ΔmexCD-oprJ, ΔmexEF-oprN; test: MIC, efflux pump mutant; type: cell-based, Pseudomonas aeruginosa; conditions: Pseudomonas aeruginosa
Experimental: as §1

[3] = tested on: P. aeruginosa 1625 ΔmexAB-oprM, ΔmexEF-oprN; test: MIC, efflux pump mutant; type: cell-based, Pseudomonas aeruginosa; conditions: Pseudomonas aeruginosa
Experimental: as §1

E. coli Δfiu = test: MIC, Keio mutant; type: cell-based, Escherichia coli
Experimental: as §2, with “conditions.” for “conditions. The resin used for Chelex treatment was always fresh and had never been regenerated, ensuring consistent iron removal.”
as §1

E. coli ΔfhuA = test: MIC, Keio mutant; type: cell-based, Escherichia coli
Experimental: as §2, with “conditions.” for “conditions. The resin used for Chelex treatment was always fresh and had never been regenerated, ensuring consistent iron removal.”
as §1

E. coli ΔcirA = test: MIC, Keio mutant; type: cell-based, Escherichia coli; conditions: Escherichia coli
Experimental: as §2, with “conditions.” for “conditions. The resin used for Chelex treatment was always fresh and had never been regenerated, ensuring consistent iron removal.”
as §1

[4] = Acinetobacter baumannii, ATCC19606, ID-MHBCA (−), 0 µg/mL supplemental iron, read-out: MIC
[5] = Acinetobacter baumannii, ATCC19606, ID-MHBCA + 1 µg/mL supplemental iron, read-out: MIC
[6] = Acinetobacter baumannii, ATCC19606, ID-MHBCA, + 200 μg/mL APB, read-out: MIC with β-lactamase inhibitor (βI)
[7] = Acinetobacter baumannii, ATCC19606, MHBCA (+), no inhibitor, read-out: MIC
[8] = Acinetobacter baumannii, ATCC19606, MHBCA, + 200 μg/mL APB, read-out: MIC with β-lactamase inhibitor (βI)
[9] = ID-MHBCA (−), 0 µg/mL supplemental iron, read-out: MIC
[10] = MHBCA (+), no inhibitor, read-out: MIC
[11] = LPTD4213, lptD4213, ID-MHBCA (−)
[12] = Pseudomonas aeruginosa, ATCC27853, ID-MHBCA (−), 0 µg/mL supplemental iron, read-out: MIC
[13] = Pseudomonas aeruginosa, ATCC27853, ID-MHBCA + 1 µg/mL supplemental iron, read-out: MIC
[14] = Pseudomonas aeruginosa, ATCC27853, ID-MHBCA, + 200 μg/mL APB, read-out: MIC with β-lactamase inhibitor (βI)
[15] = Pseudomonas aeruginosa, ATCC27853, MHBCA (+), no inhibitor, read-out: MIC
[16] = Pseudomonas aeruginosa, ATCC27853, MHBCA, + 200 μg/mL 3-aminophenylboronic acid (APB), read-out: MIC with β-lactamase inhibitor (βI)

| SMILES | MIC (E. coli ΔacrAB) | MIC [1] | MIC (A. baumannii ATCC 19606; [4]) | MIC (A. baumannii ATCC 19606; [5]) | MIC (A. baumannii ATCC 19606; [6]) | MIC (A. baumannii ATCC 19606; [7]) | MIC (A. baumannii ATCC 19606; [8]) | MIC in combination with PAβN (A. baumannii ATCC 19606; MHBCA) | MIC (E. coli lptD4213; [11]) | MIC (E. coli lptD4213; LPTD4213, lptD4213, MHBCA (+)) | MIC (P. aeruginosa ATCC 27853; [9]) | MIC in combination with PAβN (P. aeruginosa ATCC 27853; MHBCA) | MIC (P. aeruginosa ATCC 27853; [12]) | MIC (P. aeruginosa ATCC 27853; [13]) | MIC (P. aeruginosa ATCC 27853; [14]) | MIC (P. aeruginosa ATCC 27853; [15]) | MIC (P. aeruginosa ATCC 27853; [16]) | MIC [2] | MIC [3] | MIC (E. coli Δfiu; Escherichia coli, ID-MHBCA) | also measured |
| --- | --- | --- | --- | --- | --- | --- | --- | --- | --- | --- | --- | --- | --- | --- | --- | --- | --- | --- | --- | --- | --- |
| N[C@@H](C(=O)N[C@@H]1C(=O)N2C(C(=O)O)=C(Cl)CS[C@H]12)c1ccccc1 [CEF, cefaclor, reference compound] | 6.3 µM (≈ 2.32 µg/mL) | > 200 µM | > 200 µM | > 200 µM | > 200 µM | > 200 µM | > 200 µM | > 200 µM | 3.1 µM (≈ 1.14 µg/mL) | 3.1 µM (≈ 1.14 µg/mL) | >200 µM | > 200 µM | > 200 µM | > 200 µM | > 200 µM | > 200 µM | > 200 µM | > 200 µM | > 200 µM | 13 µM (≈ 4.78 µg/mL) | MIC (P. aeruginosa 1020; 1020): > 200 µM; MIC (A. baumannii ATCC 19606; [9]): >200 µM; MIC (A. baumannii ATCC 19606; [10]): >200 µM; MIC (P. aeruginosa ATCC 27853; [10]): >200 µM; MIC (E. coli Δfiu; Escherichia coli, MHBCA): 13 µM (≈ 4.78 µg/mL); MIC (E. coli ΔfhuA; Escherichia coli, ID-MHBCA): 13 µM (≈ 4.78 µg/mL); MIC (E. coli ΔfhuA; Escherichia coli, MHBCA): 13 µM (≈ 4.78 µg/mL); MIC (E. coli ΔcirA; ID-MHBCA): 25 µM (≈ 9.2 µg/mL); MIC (E. coli ΔcirA; MHBCA): 13 µM (≈ 4.78 µg/mL) |
| O=C(CN(CCCCNC(=O)c1cccc(O)c1O)C(=O)c1cccc(O)c1O)NC(C(=O)NC1C(=O)N2C(C(=O)O)=C(Cl)CCC12)c1ccccc1 (stereo not shown) [BLOR, bis-catechol (azotochelin)-loracarbef] | 0.012 µM (≈ 0.009 µg/mL) | 13 µM (≈ 9.75 µg/mL) | 0.024 µM (≈ 0.018 µg/mL) | 0.4 µM | 0.012 µM | 0.05 µM (≈ 0.0375 µg/mL) | 0.012 µM | > 6.3 µM | 0.006 µM (≈ 0.0045 µg/mL) | 0.006 µM (≈ 0.0045 µg/mL) | >200 µM | > 200 µM | > 200 µM | > 200 µM | 0.8 µM | 13 µM (≈ 9.75 µg/mL) | 6.3 µM | 6.3 µM (≈ 4.73 µg/mL) | 6.3 µM (≈ 4.73 µg/mL) | 0.024 µM (≈ 0.018 µg/mL) | MIC (P. aeruginosa 1020; P. aeruginosa 1020, read-out: MIC): 6.3 µM (≈ 4.73 µg/mL); MIC (A. baumannii ATCC 19606; Acinetobacter baumannii, ATCC19606, ID-MHBCA + 0.1 µg/mL supplemental iron, read-out: MIC): 0.1 µM; MIC ratio 0/1 (A. baumannii ATCC 19606; ID-MHBCA, 0 and 1 µg/mL supplemental iron (Table S2)): 16; MIC ratio 1/0 (A. baumannii ATCC 19606; ID-MHBCA, 1 versus 0 µg/mL supplemental iron (peer review file table)): 16; MIC ratio unconjugated β-lactam/conjugate (A. baumannii ATCC 19606; MHBCA): >4096; MIC ratio unconjugated β-lactam/conjugate (P. aeruginosa ATCC 27853; ID-MHBCA): No activity; MIC ratio unconjugated β-lactam/conjugate (P. aeruginosa ATCC 27853; MHBCA): >16; MIC (P. aeruginosa ATCC 27853; Pseudomonas aeruginosa, ATCC27853, ID-MHBCA + 0.1 µg/mL supplemental iron, read-out: MIC): > 200 µM; MIC (E. coli Δfiu; Escherichia coli, MHBCA): 0.1 to 0.4 µM (≈ 0.075 to 0.3 µg/mL); MIC (E. coli Δfiu; MHBCA): 0.1 µM (≈ 0.075 µg/mL); MIC (E. coli ΔfhuA; Escherichia coli, ID-MHBCA): 0.024 µM (≈ 0.018 µg/mL); MIC (E. coli ΔfhuA; Escherichia coli, MHBCA): 0.1 to 0.4 µM (≈ 0.075 to 0.3 µg/mL); MIC (E. coli ΔfhuA; MHBCA): 0.2 µM (≈ 0.15 µg/mL); MIC (E. coli ΔcirA; ID-MHBCA): 0.2 µM (≈ 0.15 µg/mL); MIC (E. coli ΔcirA; MHBCA): 13 µM (≈ 9.75 µg/mL) |
